In patent US8778643B2, “Methods for increasing lipid levels and producing triacylglycerols in algae” (priority 2012, dated 2014):
Where two headings read alike, the source gives them in different places.

Legend:
CDC25 phosphatase 25A = CDC25 phosphatase 25A (Homo sapiens, UniProt P30304); conditions: cited from earlier work
[1] = biological target: T1, CDC25 phosphatase 25C-cat (Homo sapiens, UniProt P30307); conditions: cited from earlier work
T1 construct: 25C-cat

CDC25 phosphatase 25C = CDC25 phosphatase 25C (Homo sapiens, UniProt P30307); conditions: cited from earlier work
[2] = test system: Phaeodactylum tricornutum; assay: Microplate assay: growth (absorbance 680 nm) and intracellular lipids (Nile Red fluorescence); type: cell-based
Experimental: (§1) Stock cultures were aerated by stirring with bubbling air (homemade manifold with Petco air pump, 2-4% CO2) or by orbital shaking (Thermo Scientific MAXQ 2000) at a constant speed of 150 rpm at 22±3° C. with a 16:8 hour light/dark cycle. Stocks were kept at stationary phase for use. Algae were prepared as dictated by culture center.
(§2) Compounds were selected based on reported biological activity in non-microalgae organisms. To ensure that compounds retained their quality, they were stored under advised conditions after purchasing from the manufacturer. Solutions of all assay compounds were prepared as 10 mM stock solutions by dissolving in DMSO in 2-dram amber vials and then stored in darkness −20° C. 96-well PCR plates were used to create a stock plate layout that was then transferred to the algae microplates. A plate map was used to distribute each compound to a well based on molecule name, collection number, and CAS number. For 20 μM and 200 nM assay plates, 10 mM compound stock in DMSO was diluted into plate maps of 5 mM and 50 μM assay stocks, respectively.
(§3) All materials for assay experiments were autoclaved before each use to maintain axenic algae cultures. Algae species were checked for homogeneity using a TS-100 light microscope (Nikon, Japan). […] Diluted stock solutions were made immediately prior to use for consistency and optimal plate growth. Cell density was measured on a Thermo Scientific Genesys 10S Vis Spectrophotometer (ThermoFisher, San Jose), using a 1 mL cuvette at 680 nm.
(§4) Plates were originally run in triplicate, before replicates were increased to quadruplicate, along with a separate control plate to compare growth. Due to extensive evaporation in exterior wells over time, our unique algae plate layout was designed to use the 60 interior wells out of 96 wells for the experiment. The 36 outer wells were filled with Millipore water and media to prevent evaporation and edge effects in the inner algae wells, as well as serve as blanks. The 60 wells with algae contained a total volume of 251 μL (100 μL of media+DMSO compound stock +150 μL dilute algae stock). For 20 μM and 200 nM assay plates, 10 mM compound stock in DMSO is diluted into plate maps of 5 mM and 50 μM assay stocks, respectively. […] Plates were parafilmed during growth to limit the amount of evaporation that can occur. Plates were numbered, and numerically ordered to ensure they got the same shaker space.
(§5) The shakers are kept at a constant shaking of 150 rpm. Ambient temperature is 22±3° C.

[3] = test system: antioxidant response element; conditions: cited from earlier work
Nannochloris sp. = assay: Microplate assay: growth (absorbance 680 nm) and intracellular lipids (Nile Red fluorescence); type: cell-based; conditions: for Absorbance (percent increase) / Nile Red percent increase: 200 nM, initial microplate screen, relative to control; for Nile Red Fluorescence % Increase: Nannochloris sp., initial screening, p<0.05
Nannochloropsis sp. = assay: Microplate assay: increase of lipid production (Table 17); type: cell-based; conditions: best conc. 2.4 nM
From the text: We also tested a collection with more antioxidants, kinase inhibitors, and further compounds for increase of lipid production with N. salina, P. tricornutum, N. oculata, and Nannochloropsis sp.

arachidonate 15-LO = arachidonate 15-LO (Homo sapiens, UniProt P16050); conditions: cited from earlier work
CDK6 = CDK6 (Homo sapiens, UniProt Q00534); conditions: cited from earlier work
Nannochloropsis oculata = conditions: 55.2-165.6 nM
protein phosphatase 2A = protein phosphatase 2A (Homo sapiens, UniProt P67775); conditions: cited from earlier work
[4] = 200 nM, initial microplate screen, relative to control

CDK6, sequence (Q00534 whole entry, looked up): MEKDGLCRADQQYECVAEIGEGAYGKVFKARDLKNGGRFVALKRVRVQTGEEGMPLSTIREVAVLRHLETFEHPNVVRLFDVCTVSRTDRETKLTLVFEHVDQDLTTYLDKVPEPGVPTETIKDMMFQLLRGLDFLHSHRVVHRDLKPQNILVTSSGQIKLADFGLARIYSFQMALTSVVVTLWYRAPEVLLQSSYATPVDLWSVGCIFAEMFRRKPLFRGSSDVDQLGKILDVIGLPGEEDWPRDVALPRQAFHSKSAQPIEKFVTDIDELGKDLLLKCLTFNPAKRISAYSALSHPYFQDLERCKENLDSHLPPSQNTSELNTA
T1 sequence (P30307 321-428 limits assumed): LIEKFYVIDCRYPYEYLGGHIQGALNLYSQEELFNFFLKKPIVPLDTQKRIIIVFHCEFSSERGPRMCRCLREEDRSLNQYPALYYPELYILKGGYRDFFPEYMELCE
CDC25 phosphatase 25C, sequence (P30307 whole entry): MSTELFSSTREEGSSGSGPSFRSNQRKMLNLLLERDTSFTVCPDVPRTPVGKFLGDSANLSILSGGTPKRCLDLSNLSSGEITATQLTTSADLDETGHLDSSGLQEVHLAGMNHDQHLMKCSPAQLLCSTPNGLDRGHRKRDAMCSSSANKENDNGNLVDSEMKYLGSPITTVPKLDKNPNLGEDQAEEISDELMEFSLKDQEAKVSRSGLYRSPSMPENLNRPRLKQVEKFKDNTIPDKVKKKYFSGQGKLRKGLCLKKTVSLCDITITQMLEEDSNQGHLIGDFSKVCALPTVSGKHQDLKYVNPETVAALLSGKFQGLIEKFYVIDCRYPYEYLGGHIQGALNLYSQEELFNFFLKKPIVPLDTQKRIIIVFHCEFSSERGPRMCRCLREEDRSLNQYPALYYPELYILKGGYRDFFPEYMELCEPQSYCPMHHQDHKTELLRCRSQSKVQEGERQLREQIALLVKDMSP
CDC25 phosphatase 25A, sequence (P30304 whole entry): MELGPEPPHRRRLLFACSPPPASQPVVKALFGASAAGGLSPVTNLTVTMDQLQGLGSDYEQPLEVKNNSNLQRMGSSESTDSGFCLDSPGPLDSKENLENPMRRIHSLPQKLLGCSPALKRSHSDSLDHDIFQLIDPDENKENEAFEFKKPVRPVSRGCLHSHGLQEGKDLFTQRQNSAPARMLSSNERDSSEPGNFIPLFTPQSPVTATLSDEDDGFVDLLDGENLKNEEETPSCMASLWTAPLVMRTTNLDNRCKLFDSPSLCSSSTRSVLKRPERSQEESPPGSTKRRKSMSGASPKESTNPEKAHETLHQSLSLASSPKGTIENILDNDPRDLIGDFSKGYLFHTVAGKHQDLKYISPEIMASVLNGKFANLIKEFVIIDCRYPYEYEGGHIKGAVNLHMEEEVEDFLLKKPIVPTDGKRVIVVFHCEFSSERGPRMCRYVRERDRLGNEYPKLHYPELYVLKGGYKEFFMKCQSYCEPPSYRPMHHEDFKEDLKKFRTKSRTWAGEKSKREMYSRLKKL
protein phosphatase 2A, sequence (P67775 whole entry): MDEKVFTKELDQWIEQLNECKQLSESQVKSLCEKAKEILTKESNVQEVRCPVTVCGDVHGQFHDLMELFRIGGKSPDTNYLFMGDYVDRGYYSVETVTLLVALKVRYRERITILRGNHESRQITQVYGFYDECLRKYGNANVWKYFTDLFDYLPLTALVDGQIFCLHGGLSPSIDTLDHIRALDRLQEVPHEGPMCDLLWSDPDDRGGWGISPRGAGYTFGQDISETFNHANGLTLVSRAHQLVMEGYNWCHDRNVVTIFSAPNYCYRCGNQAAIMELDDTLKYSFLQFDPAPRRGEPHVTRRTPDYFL
arachidonate 15-LO, sequence (P16050 whole entry): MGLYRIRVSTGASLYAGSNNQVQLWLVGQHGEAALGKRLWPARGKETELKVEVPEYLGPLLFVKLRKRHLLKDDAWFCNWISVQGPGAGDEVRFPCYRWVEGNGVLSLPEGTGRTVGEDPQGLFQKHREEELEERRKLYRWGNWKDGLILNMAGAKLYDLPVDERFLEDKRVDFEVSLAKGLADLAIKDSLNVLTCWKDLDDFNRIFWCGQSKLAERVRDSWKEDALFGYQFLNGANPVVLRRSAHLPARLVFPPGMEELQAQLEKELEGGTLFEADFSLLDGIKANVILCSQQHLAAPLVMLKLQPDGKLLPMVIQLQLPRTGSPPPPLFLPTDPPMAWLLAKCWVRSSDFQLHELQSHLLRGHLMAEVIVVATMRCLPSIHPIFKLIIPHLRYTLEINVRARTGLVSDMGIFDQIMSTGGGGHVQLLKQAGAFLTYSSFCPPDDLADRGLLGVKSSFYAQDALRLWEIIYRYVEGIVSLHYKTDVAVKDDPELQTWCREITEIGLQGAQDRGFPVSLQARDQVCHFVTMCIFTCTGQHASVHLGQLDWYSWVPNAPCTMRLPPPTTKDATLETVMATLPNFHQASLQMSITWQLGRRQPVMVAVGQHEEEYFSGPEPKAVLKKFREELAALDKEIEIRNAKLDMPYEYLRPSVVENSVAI
Experimental for Nannochloropsis salina: as §1, §2, §3, §4, §5

## 6-Chloro-7-(2-morpholin-4-yl-ethylamino)-quinoline-5,8-dione [CDC25 Phosphatase Inhibitor I]
CDC25 phosphatase 25A
  IC50: 2.4 µM
[1]
  IC50: 4.6 µM
CDC25 phosphatase 25C
  IC50: 5.4 µM

## CC1=CC(=O)CC(C)(C)[C@@]1(O)/C=C/C(C)=C\C(=O)O [Abscisic acid, (2Z,4E)-5-[(1S)-1-hydroxy-2,6,6-trimethyl-4-oxocyclohex-2-en-1-yl]-3-methylpenta-2,4-dienoic acid]
[2]; [4]
  Absorbance (percent increase): −1.2%
  Nile Red percent increase: 87.0%
[2]; P. tricornutum, compounds tested at 200 nM, initial screening, p<0.05
  Nile Red Fluorescence % Increase: 87.0%
Nannochloropsis salina; N. salina, compounds tested at 20 μM, initial screening, p<0.05
  Nile Red Fluorescence % Increase: 34.5%
[3]
  agonist of antioxidant response element at: element at 37.6 μM)
Nannochloris sp.
  Absorbance (percent increase): −2.6%
  Nile Red percent increase: 61.6%
Nannochloris sp.; compounds tested at 200 nM
  Nile Red Fluorescence % Increase: 90.8%

## CC(=O)Nc1ccc(O)cc1 [Acetaminophen, N-(4-hydroxyphenyl)ethanamide]
Nannochloropsis sp.
  % Inc: 13.11%
Arachidonate 15-LO
  IC50: 28.4 µM
Nannochloris sp.
  Absorbance (percent increase): −6.7%
  Nile Red percent increase: 68.9%
Nannochloris sp.; compounds tested at 20 μM
  Nile Red Fluorescence % Increase: 89.7%

## CCNc1cc(N[C@H]2CC[C@H](O)CC2)nc(Nc2ccc3c(ccn3Cc3ccccc3)c2)n1 [CDK4/6 Inhibitor 4, trans-4-((6-(ethylamino)-2-((1-(phenylmethyl)-1H-indol-5-yl)amino)-4-pyrimidinyl)amino)-cyclohexanol]
CDK6
  IC50: 5.6 µM
[2]; P. tricornutum, 10 μM, DMSO delivery, added t=day 0
  % Increase based on Nile Red Fluorescence Intensity: 50%

## CC12C(=O)OC(=O)C1(C)C1CCC2O1 (stereo not drawn) [Cantharidin, 2,6-Dimethyl-4,10-dioxatricyclo-[5.2.1.0^2,6]decane-3,5-dione]
Nannochloropsis oculata
  % increase (lipid production): 11-54%
[2]; 0.0252-0.0757 nM
  % increase (lipid production): 9-35%
[2]; 0.0252-165.6 nM (H2O)
  % increase (lipid production): 0.17-168.19%
Nannochloropsis salina; 0.0252-0.681 nM
  % increase (lipid production): 1-15%
Nannochloropsis salina; 0.0252-165 nM (H2O)
  % increase (lipid production): 7-87%
Nannochloris sp.
  Absorbance (percent increase): −6.5%
  Nile Red percent increase: 64.5%
Nannochloris sp.; compounds tested at 20 μM
  Nile Red Fluorescence % Increase: 22.9%
Protein phosphatase 2A
  IC50: 0.04 µM
